Test results: PubChem BioAssay (NCI)
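Exposure lasted 48 hours, with cells grown in 96-well plates and compounds tested at five concentrations. TGI: concentration producing complete growth inhibition.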

What was measured:
Assay in all cases: NCI tumour cell line growth inhibition, 48 h
[1] = system: SF-539 CNS
[2] = system: MOLT-4 leukemia
[3] = system: HOP-62 NSCLC
[4] = system: SK-MEL-5 melanoma
[5] = system: UACC-62 melanoma
[6] = system: DU-145 prostate
[7] = system: NCI-H522 lung
[8] = system: HT29 colon
[9] = system: A498 renal
[10] = system: NCI/ADR-RES ovarian
[11] = system: HOP-92 NSCLC
[12] = system: TK-10 renal
[13] = system: COLO 205 colon
[14] = system: SF-268 CNS
[15] = system: OVCAR-3 ovarian
[16] = system: 786-0 renal
[17] = system: SK-MEL-2 melanoma
[18] = system: T-47D breast
[19] = system: BT-549 breast
[20] = system: EKVX NSCLC
[21] = system: IGROV1 ovarian
[22] = system: RPMI-8226 leukemia
[23] = system: RXF 393 renal
[24] = system: MDA-MB-435
[25] = system: SK-OV-3 ovarian
[26] = system: HL-60(TB) leukemia
[27] = system: PC-3 prostate
[28] = system: MALME-3M melanoma
[29] = system: OVCAR-4 ovarian
[30] = system: K-562 leukemia
[31] = system: MDA-MB-231 breast
[32] = system: MDA-N
[33] = system: SF-295 CNS
[34] = system: HCT-15 colon
[35] = system: SNB-75 CNS
[36] = system: U251 CNS
[37] = system: SNB-19 CNS
[38] = system: SN12C renal
[39] = system: A549 NSCLC
[40] = system: CAKI-1 renal
[41] = system: MCF7 breast
[42] = system: UO-31 renal
[43] = system: HS 578T breast
[44] = system: HCT-116 colon
[45] = system: ACHN renal
[46] = system: NCI-H23 lung
[47] = system: UACC-257 melanoma
[48] = system: SK-MEL-28 melanoma
[49] = system: LOX IMVI melanoma
[50] = system: M14 melanoma
[51] = system: OVCAR-8 ovarian
[52] = system: CCRF-CEM leukemia
[53] = system: OVCAR-5 ovarian
[54] = system: NCI-H226 lung
[55] = system: SW-620 colon
[56] = system: HCC-2998 colon
[57] = system: SR leukemia
[58] = system: NCI-H460 lung
[59] = system: KM12 colon

Structure (SMILES): O=C(/C=C/c1ccc(O)cc1)c1cc(O)cc(O)c1
- TGI [1]: 26.5 µM
- TGI [2]: 45.3 µM
- TGI [3]: 29 µM
- TGI [4]: 28.9 µM
- TGI [5]: 24.1 µM
- TGI [6]: 25.2 µM
- TGI [7]: 18.1 µM
- TGI [8]: 35 µM
- TGI [9]: 28.1 µM
- TGI [10]: > 100 µM
- TGI [11]: 31.9 µM
- TGI [12]: 45.8 µM
- TGI [13]: 31.9 µM
- TGI [14]: 54.3 µM
- TGI [15]: 29.4 µM
- TGI [16]: 30.6 µM
- TGI [17]: 34.9 µM
- TGI [18]: 33 µM
- TGI [19]: 29.8 µM
- TGI [20]: 32.5 µM
- TGI [21]: 26.6 µM
- TGI [22]: 21.3 µM
- TGI [23]: 32 µM
- TGI [24]: 38.9 µM
- TGI [25]: 42.4 µM
- TGI [26]: > 100 µM
- TGI [27]: 23.2 µM
- TGI [28]: 47.3 µM
- TGI [29]: 44.6 µM
- TGI [30]: 18.4 µM
- TGI [31]: 30.4 µM
- TGI [32]: 26.7 µM
- TGI [33]: 30.6 µM
- TGI [34]: 16.9 µM
- TGI [35]: 39.9 µM
- TGI [36]: 27.5 µM
- TGI [37]: 30.3 µM
- TGI [38]: 28.4 µM
- TGI [39]: 30.6 µM
- TGI [40]: 43.8 µM
- TGI [41]: 12.3 µM
- TGI [42]: 21.6 µM
- TGI [43]: > 100 µM
- TGI [44]: 26.3 µM
- TGI [45]: 20.2 µM
- TGI [46]: 43.3 µM
- TGI [47]: 30.3 µM
- TGI [48]: 42.7 µM
- TGI [49]: 17.3 µM
- TGI [50]: 29.3 µM
- TGI [51]: 27.6 µM
- TGI [52]: 35.1 µM
- TGI [53]: 29 µM
- TGI [54]: 50.3 µM

Structure (SMILES): COc1ccc(N2C(=O)C3c4[nH]c5cc(Cl)ccc5c4C4CCC(C(C)(C)C)CC4C3C2=O)cc1 (stereo unspecified)
- TGI [1]: > 100 µM
- TGI [2]: > 100 µM
- TGI [3]: > 100 µM
- TGI [4]: > 100 µM
- TGI [5]: > 100 µM
- TGI [6]: > 100 µM
- TGI [7]: > 100 µM
- TGI [8]: > 100 µM
- TGI [10]: > 100 µM
- TGI [12]: > 100 µM
- TGI [13]: > 100 µM
- TGI [14]: > 100 µM
- TGI [15]: > 100 µM
- TGI [16]: > 100 µM
- TGI [55]: > 100 µM
- TGI [18]: > 100 µM
- TGI [19]: > 100 µM
- TGI [20]: > 100 µM
- TGI [21]: > 100 µM
- TGI [22]: > 100 µM
- TGI [23]: > 100 µM
- TGI [24]: > 100 µM
- TGI [56]: > 100 µM
- TGI [25]: > 100 µM
- TGI [26]: 69.4 µM
- TGI [27]: > 100 µM
- TGI [29]: > 100 µM
- TGI [30]: > 100 µM
- TGI [57]: 43.6 µM
- TGI [31]: > 100 µM
- TGI [32]: > 100 µM
- TGI [33]: > 100 µM
- TGI [34]: > 100 µM
- TGI [35]: > 100 µM
- TGI [36]: > 100 µM
- TGI [37]: > 100 µM
- TGI [38]: > 100 µM
- TGI [39]: > 100 µM
- TGI [41]: > 100 µM
- TGI [42]: > 100 µM
- TGI [43]: > 100 µM
- TGI [58]: > 100 µM
- TGI [44]: > 100 µM
- TGI [59]: > 100 µM
- TGI [45]: > 100 µM
- TGI [46]: > 100 µM
- TGI [47]: > 100 µM
- TGI [48]: > 100 µM
- TGI [50]: > 100 µM
- TGI [51]: > 100 µM
- TGI [52]: > 100 µM
- TGI [54]: > 100 µM
